The nature of data set [1]: accelerated −30° F. storage test (crystal formation). In kind it is physicochemical. Particulars: 1.5% by volume in the Example composition. The protocol: Additional morpholine derivatives were also tested in lieu of the morpholine in the above table, at the same amount (1.5% by volume) and by the accelerated −30° F. storage test. These derivatives were N-methylmorpholine, N-ethylmorpholine, N-methylmorpholine oxide, and N-aminopropylmorpholine.

Data set [2] is described as follows: substitute ingredients in lieu of morpholine in THP/THPS-amino phosophono chelant compositions (crystal deposition). It counts as physicochemical. Particulars: ingredients employed alone and in various combinations in THP/THPS-amino phosophono chelant compositions. An excerpt:
During the course of development of the present invention, a number of different ingredients were used in lieu of morpholine in THP/THPS-amino phosophono chelant compositions. None of these substitute materials were successful.

`NCCCN1CCOCC1` [N-aminopropylmorpholine]: the “result of accelerated storage test with derivative in lieu of morpholine” value (shortened to “result of accelerated storage test”) in data set [1] is reported as “satisfactory results”.

For `CCN1CCOCC1` [N-ethylmorpholine], in data set [1], the “result of accelerated storage test” value was “satisfactory results”.

`C[N+]1([O-])CCOCC1` [N-methylmorpholine oxide]: the “result of accelerated storage test” value in data set [1] was “satisfactory results”.

On to `CN1CCOCC1` [N-methylmorpholine], for which the “result of accelerated storage test” value in data set [1] is given as “satisfactory results”.

For `N` [ammonium hydroxide], in data set [2], the “crystal deposition of product with ingredient used in lieu of morpholine” value (“crystal deposition of product” for short) was “prone to crystal deposition”.

Regarding `CC(C)O` [isopropyl alcohol], in data set [2], the “crystal deposition of product” value is given as “prone to crystal deposition”.

Regarding `CO` [methyl alcohol], the “crystal deposition of product” value in data set [2] was “prone to crystal deposition”.

Consider `[Na+].[OH-]` [sodium hydroxide], for which, in data set [2], the “crystal deposition of product” value is reported as “prone to crystal deposition”.
